According to patent publication EP2057185B1, “POLYMYXIN DERIVATIVES AND USES THEREOF” (Northern Antibiotics Oy, priority 2006, dated 2008):
pIC50: −log10 of the molar value. Bridge positions count the residues as written; N and C are the ends. Square brackets hold non-standard residues; d marks the D form. Peptide text beside a SMILES is read from it. * marks the point of attachment. Octanoyl = CCCCCCCC(=O)*; Dab = NCC[C@H](N)C(=O)O; Abu = CC[C@H](N)C(=O)O

Legend:
[1] = tested on: K. oxytoca ATCC 13182; experiment: Growth inhibition around wells on LB agar plates; assay type: cell-based, Klebsiella oxytoca; conditions: growth inhibition area around well
Experimental: (§1) From an overnight-grown culture of IH3080 on LB agar, a suspension of approx. 10^8 cells/ml was prepared in 0.9% NaCl. Aliquots of this suspension were then pipetted on the agar plates and the plates were gently shaken to spread the suspension evenly on the entire surface of the plate. Thereafter, the unabsorbed part of the suspension was removed by using a Pasteur pipette. After the surface had dried, small wells (diameter, 2 mm) were drilled on the plates (five wells per plate) by using a sterile sharp-edged narrow metal tube, single-use pipette tip, and vacuum suction. Samples (4 µl and 10 µl) of the peptide solution in 0.9% NaCl (at concentrations of 1 µg/ml and 0.1 µg/ml) were then pipetted to the wells and the sample fluids were allowed to absorb. Controls included 0.9% NaCl solution without the compound to be tested. The plates were then incubated for 18 h at 37°C whereafter the diameters of growth inhibition zones around each well were measured; the diameter of the well itself was […]. Finally, the diameters were converted to surface areas of growth inhibition (in square mm).
(§2) The susceptibility of eleven Gram-negative bacterial strains (nine different species) to NAB734 and polymyxin B was compared by using the susceptibility determination method described in Example 2. […]

[2] = tested on: E. coli ATCC25922; experiment: Growth inhibition around wells on LB agar plates; assay type: cell-based, Escherichia coli; conditions: growth inhibition area around well
Experimental: as §1, §2

[3] = tested on: P. aeruginosa F58; experiment: MIC by E-strips on Mueller-Hinton agar with or without NAB7061 (4 µg/ml); assay type: cell-based, Pseudomonas aeruginosa
Experimental: (§3) MICs were determined by using E-strips (Biodisk Ltd., Solna, Sweden) according to the manufacturer's instructions.
(§4) The strains originated from ATCC (11 strains), CCUG (11 strains), and NCTC (The National Collection of Type Cultures, Colindale, U.K.; 2 strains). Eight strains (the F-strains) were purchased from Mobidiag Ltd., Helsinki, Finland.

[4] = tested on: P. aeruginosa ATCC27853; experiment: as above; assay type: cell-based, Pseudomonas aeruginosa
Experimental: as §3, §4

[5] = tested on: P. aeruginosa CCUG51971; experiment: as above; assay type: cell-based, Pseudomonas aeruginosa
Experimental: as §3, §4

[6] = tested on: A. baumannii ATCC 19606; experiment: Growth inhibition around wells on LB plates containing rifampin (sensitization); assay type: cell-based, Acinetobacter baumannii; conditions: well containing 4 µg
[7] = tested on: E. cloacae F230; experiment: MIC by E-strips on Mueller-Hinton agar with or without NAB7061 (4 µg/ml); assay type: cell-based, Enterobacter cloacae
Experimental: as §3, §4

[8] = tested on: E. cloacae CCUG52947; experiment: as above; assay type: cell-based, Enterobacter cloacae
Experimental: as §3, §4

[9] = tested on: E. cloacae F232; experiment: as above; assay type: cell-based, Enterobacter cloacae
Experimental: as §3, §4

[10] = tested on: E. coli IH3080 (K1:O18); experiment: Experimental E. coli peritonitis model in mice; assay type: in vivo; conditions: peritoneal fluid; 5 mg/kg body weight subcutaneous at 1 h; […] after the treatment
Experimental: A suspension of E. coli IH3080 (K1:O18) in saline (0.9% NaCl) was prepared from an overnight culture on a blood agar plate (Statens Serum Institut, Copenhagen, Denmark). All mice (female NMR1 from Harlan Scandinavia, Aller⌀d, Denmark; weight, 25-30 g) were inoculated intraperitoneally with 0.5 ml of the suspension containing 0.96 x 10^6 CFU per ml in the lateral lower quadrant of the abdomen. At 1 h, the CFU count was determined from three mice and the remaining mice (four mice per group) were treated with a subcutaneous injection of 0.2 ml of erythromycin solution in saline (corresponding to 5 mg/kg body weight) or NAB7061 solution in saline (corresponding to 5 mg/kg body weight), or both erythromycin and NAB7061 (corresponding to 5 mg/kg body weight of both drugs; given at two separate sites). Control group received two 0.2 ml injections of saline. At 4.5 h postinfection, all mice were anaesthetized with CO2 and sacrificed. Sterile saline (2 ml) was injected intraperitoneally and the abdomen was gently massaged before it was opened and the fluid sampled. Appropriate dilutions of the fluid were plated on blood agar plates, the plates were incubated overnight, and the colonies were counted.

[11] = biological target: brush-border membrane (BBM) of the renal cortex; experiment: Inhibition of binding of radiolabelled gentamycin to brush-border membrane; design: species or system male albino rats; conditions: BBM vesicles, 20 µM [^3H] gentamycin, 60 min at 4°C, pH 7.5
Description: The binding of the compounds according to this invention to isolated brush-border membrane (BBM) from the renal cortex can be measured indirectly by measuring their ability to inhibit the binding of radiolabelled gentamycin to BBM. Accordingly, the compounds according to this invention that have less affinity to BBM than for example polymyxin B inhibit the binding of radio-labelled gentamycin to a lesser degree than does polymyxin B.
BBM was isolated from the renal cortex of male albino rats by using the Mg^2+/EGTA precipitation technique as described by Nagai et al. (2006). The binding of gentamycin was measured, according to the method described by Nagai et al. (2006) by incubating BBM vesicles (20µl) in 10 mM HEPES (pH 7.5) with 300 mM mannitol in the presence of 20 µM [^3H] gentamycin (American Radiolabeled Chemicals, Inc. (St. Louis, MO, U.S.A.)) with or without the compound to be tested or a positive control. After an incubation of 60 min at 4°C, 1 ml of ice-cold buffer described above was added, and the mixture was filtered through a Millipore filter (0.45 µm; HAWP). The filter was washed with the buffer and the radioactivity remaining in the filter was measured by using a liquid scintillation counter. The IC50 values were determined as in Nagai et al. (2006) using the Hill equation.

## Polymyxin B
[1]; 4 µg
  Antibacterial activity 4 µg: 79 square millimeters
[1]; 10 µg
  Antibacterial activity 10 µg: 104 square millimeters
[2]; 4 µg
  Antibacterial activity 4 µg: 95 square millimeters
[2]; 10 µg
  Antibacterial activity 10 µg: 133 square millimeters

## CCCCCCCC(=O)N[C@H](C(=O)N[C@@H](CC)C(=O)N[C@H]1CCNC(=O)[C@H]([C@@H](C)O)NC(=O)[C@H](CCN)NC(=O)[C@H](CCN)NC(=O)[C@H](CC(C)C)NC(=O)[C@@H](Cc2ccccc2)NC(=O)[C@H](CCN)NC1=O)[C@@H](C)O [NAB 7061, OA-Thr-Abu-cy[Dab-Dab-DPhe-Leu-Dab-Dab-Thr-]] (Octanoyl-T[Abu][Dab][Dab][dF]L[Dab][Dab]T; lactam 3-C)
[3]
  MIC (µg/ml) of clarithromycin in the presence of 4 µg/ml of NAB 7061: […]
  MIC (µg/ml) of rifampin in the presence of 4 µg/ml of NAB 7061: […]
[3]; 4 µg/ml of NAB 7061
  Sensitization factor to clarithromycin: […]
  Sensitization factor to rifampin: […]
[4]
  MIC (µg/ml) of clarithromycin in the presence of 4 µg/ml of NAB 7061: […]
  MIC (µg/ml) of rifampin in the presence of 4 µg/ml of NAB 7061: […]
[4]; 4 µg/ml of NAB 7061
  Sensitization factor to clarithromycin: […]
  Sensitization factor to rifampin: […]
[5]
  MIC (µg/ml) of clarithromycin in the presence of 4 µg/ml of NAB 7061: […]
  MIC (µg/ml) of rifampin in the presence of 4 µg/ml of NAB 7061: […]
[5]; 4 µg/ml of NAB 7061
  Sensitization factor to clarithromycin: […]
  Sensitization factor to rifampin: […]
[6]; no rifampin (control)
  Antibacterial activity, rifampin 0: 0 square millimeters
[6]; rifampin 0.1 µg/ml
  Antibacterial activity, rifampin 0.1: […]
[6]; rifampin 0.3 µg/ml
  Antibacterial activity, rifampin 0.3: […]
[7]
  MIC (µg/ml) of clarithromycin in the presence of 4 µg/ml of NAB 7061: […]
  MIC (µg/ml) of rifampin in the presence of 4 µg/ml of NAB 7061: […]
[7]; 4 µg/ml of NAB 7061
  Sensitization factor to clarithromycin: […]
  Sensitization factor to rifampin: […]
[8]
  MIC (µg/ml) of clarithromycin in the presence of 4 µg/ml of NAB 7061: […]
  MIC (µg/ml) of rifampin in the presence of 4 µg/ml of NAB 7061: […]
[8]; 4 µg/ml of NAB 7061
  Sensitization factor to clarithromycin: […]
  Sensitization factor to rifampin: […]
[9]
  MIC (µg/ml) of clarithromycin in the presence of 4 µg/ml of NAB 7061: […]
  MIC (µg/ml) of rifampin in the presence of 4 µg/ml of NAB 7061: […]
[9]; 4 µg/ml of NAB 7061
  Sensitization factor to clarithromycin: […]
  Sensitization factor to rifampin: […]
[10]
  CFU counts (per ml) at 4.5 h postinfection: […]
[11]
  pIC50: 3.73
